Biological target: Sodium- and chloride-dependent GABA transporter 1 (Homo sapiens, UniProt P30531)
Assay: Inhibition of GAT1 transport activity

Sodium- and chloride-dependent GABA transporter 1, sequence (P30531 whole entry): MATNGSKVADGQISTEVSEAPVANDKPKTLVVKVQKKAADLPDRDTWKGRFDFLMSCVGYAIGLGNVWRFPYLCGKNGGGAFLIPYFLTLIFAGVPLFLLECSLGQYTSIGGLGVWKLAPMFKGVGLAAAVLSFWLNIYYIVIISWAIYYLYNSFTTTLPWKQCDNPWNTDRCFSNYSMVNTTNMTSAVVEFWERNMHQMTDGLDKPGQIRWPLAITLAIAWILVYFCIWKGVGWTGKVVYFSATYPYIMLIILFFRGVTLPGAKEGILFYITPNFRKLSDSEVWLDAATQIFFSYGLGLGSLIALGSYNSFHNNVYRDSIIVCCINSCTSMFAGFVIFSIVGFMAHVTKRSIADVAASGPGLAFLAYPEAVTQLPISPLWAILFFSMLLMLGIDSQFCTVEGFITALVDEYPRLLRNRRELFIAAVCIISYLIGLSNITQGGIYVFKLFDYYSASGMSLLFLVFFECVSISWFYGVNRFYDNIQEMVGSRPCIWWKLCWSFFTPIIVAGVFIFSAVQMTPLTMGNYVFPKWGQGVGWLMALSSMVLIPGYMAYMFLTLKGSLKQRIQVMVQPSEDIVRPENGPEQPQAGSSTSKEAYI

O=C(O)[C@@H]1CCCN(CCC=C(c2sccc2COc2cccc3ccccc23)c2sccc2COc2cccc3ccccc23)C1 gave an IC50 of 66300 nM.

O=C(O)C1CCCCN1CCC=C(c1sccc1COC1CCCCC1)c1sccc1COC1CCCCC1 (stereo not given) gave an IC50 of 940 nM.

O=C(O)C1CCN(CCC=C(c2sccc2COc2cccc3ccccc23)c2sccc2COc2cccc3ccccc23)CC1 was tested, and the IC50 was greater than 100000 nM.

O=C(O)C1CCN(CCC=C(c2sccc2COc2ccccc2)c2sccc2COc2ccccc2)CC1 was tested, and the IC50 was 1500 nM.

In the case of Cc1ccsc1C(=CCCN1CCC(C(=O)O)CC1)c1sccc1C, the IC50 is reported as greater than 100000 nM.

Compound O=C(O)[C@@H]1CCCN(CCC=C(c2sccc2COc2ccccc2)c2sccc2COc2ccccc2)C1 has an IC50 of 340 nM.

COCc1ccsc1C(=CCCN1CCC[C@@H](C(=O)O)C1)c1sccc1COC gave an IC50 of 2800 nM.

With O=C(O)C1CCN(CCC=C(c2sccc2COC2CCCCC2)c2sccc2COC2CCCCC2)CC1 the IC50 was 1240 nM.

With CC(C)OCc1ccsc1C(=CCCN1CCC[C@@H](C(=O)O)C1)c1sccc1COC(C)C the IC50 was 7100 nM.

CC(C)OCc1ccsc1C(=CCCN1CCC(C(=O)O)CC1)c1sccc1COC(C)C gave an IC50 greater than 100000 nM.

With O=C(O)[C@@H]1CCCN(CCC=C(c2sccc2COCc2ccccc2)c2sccc2COCc2ccccc2)C1 the IC50 was 840 nM.

Work on COCc1ccsc1C(=CCCN1CCC(C(=O)O)CC1)c1sccc1COC yielded an IC50 greater than 100000 nM.

Compound O=C(O)C1CCCCN1CCC=C(c1sccc1COc1ccccc1)c1sccc1COc1ccccc1 (stereo not given) has an IC50 of 650 nM.

In the case of Cc1ccsc1C(=CCCN1CCCCC1C(=O)O)c1sccc1C (stereo not given), the IC50 is reported as 1360 nM.

Work on COCc1ccsc1C(=CCCN1CCCCC1C(=O)O)c1sccc1COC (stereo not given) yielded an IC50 of 12300 nM.

Compound O=C(O)C1CCCCN1CCC=C(c1sccc1COCc1ccccc1)c1sccc1COCc1ccccc1 (stereo not given) has an IC50 of 27600 nM.

For CC(C)OCc1ccsc1C(=CCCN1CCCCC1C(=O)O)c1sccc1COC(C)C (stereo not given), the IC50 was greater than 100000 nM.

O=C(O)C1CCCCN1CCC=C(c1sccc1COc1cccc2ccccc12)c1sccc1COc1cccc2ccccc12 (stereo not given) showed an IC50 greater than 100000 nM.

O=C(O)C1CCN(CCC=C(c2sccc2COCc2ccccc2)c2sccc2COCc2ccccc2)CC1 showed an IC50 of 4340 nM.

O=C(O)[C@@H]1CCCN(CCC=C(c2sccc2COC2CCCCC2)c2sccc2COC2CCCCC2)C1 gave an IC50 of 680 nM.

— ChEMBL document CHEMBL1148561, “Design, synthesis, and biological evaluation of the N-diarylalkenyl-piperidinecarboxylic acid derivatives as GABA uptake inhibitors (I)” (Bioorg Med Chem Lett, 2006)
